The source of these data is paper PMC11117716 (Biomolecules, 2024).

A word on the AUC(0-t): it is the area under the concentration-time curve up to a stated or last time point. By Cmax is commonly meant the maximum level reached in the sampled fluid or tissue. A word on the Tmax: it is the time from dosing to the highest level. One may read the half-life as how long it takes for the measured level to halve.

Data set [1] in a line: Plasma pharmacokinetics after oral Posiphen in CD-1 mice (LC-MS/MS). Particulars: for AUC(0-t) / Cmax / Tmax: po. How it is done: (§1) The animal PKs were taken from multiple GLP toxicology studies, biomarker studies, and efficacy studies. […] Sample size (n) represents the number of animals at each time point of sample collection. […] The dose volume was determined according to animals’ weight collected on the dosing day.
(§2) In mice, blood samples were collected via the saphenous vein or other suitable blood collection site into a microcentrifuge tube containing the anti-coagulant K2-EDTA on wet ice and processed for plasma. For samples collected within the first hour of dosing, ±1 min is acceptable, while for all other timepoints, samples were taken within 5% of the scheduled time and are not considered as protocol deviations. Plasma samples were centrifuged (3200× g for 10 min at 4 °C) within an hour of collection. CSF samples were collected with 3 μL volume per time point, frozen on dry ice, and stored at −60 °C for further analysis. For brain collection in mice, animals were euthanized using CO2 inhalation. Whole brain was collected, washed in cold saline, dried, and homogenized immediately […]. Homogenizing buffer MeOH/15 mM PBS (1:2, v:v) was used at a ratio of 1:9 (1 g of tissue with 9 mL of buffer; the dilution ratio is 10).
(§3) In humans, the bioanalytical method was performed in accordance with current FDA, Industry Guidelines, and OECD Principles. […] The sample analysis was conducted in accordance with current GCP and GLP principles, and the results were presented for pharmacokinetic profiling (Absorption Systems, Exton, PA, USA). Calibration ranges for each analyte ranged from 1000 ng/mL to 1 ng/mL (or ng/g for brain) in plasma, brain, and CSF matrices. The detection limit was 0.025 ng/mL. The following PK parameters were collected for the purpose of this manuscript: maximum concentration (Cmax), time to maximum drug concentration (Tmax), half-life (T1/2), and the Area Under the Curve (AUC).
Blood plasma samples were collected at various time points within the initial 8 h following administration (6 h for humans). Plasma concentrations (ng/mL) were measured over the 8 h observation window to characterize the maximum concentration (Cmax), the time to peak drug concentration (Tmax), the half-life (T1/2), and the Area Under the Curve (AUC).

A further data set in a line: in vivo. How it is done:
as §1, §2, §3

The nature of data set [2]: Plasma pharmacokinetics after oral Posiphen in humans (LC-MS/MS). The settings on record: human, in vivo, po; for AUC(0-t): read-out: AUC (0-t). Format: in vivo, human. How it is done: This paper describes data from multiple studies.
Samples were frozen and then stored at −80 °C.
(§4) The detection limit was 0.025 ng/mL.

For data set [3], the system named is neurotoxic aggregating proteins. Particulars: cited from earlier work.
Another data set concerns acetylcholinesterase. The settings on record: cited from earlier work.
The next data set can be described thus: clinical. The settings on record: human, in vivo; for Kp: 80 mg/day; for AUC(0-t) / Cmax: po. How it is done:
This paper describes data from multiple studies. The healthy volunteers’ data come from the single ascending and multiple ascending dose study, whereas Alzheimer’s and Parkinson’s patients are represented by the MCI NCT01072812 study, ADCS NCT02925650 study, and AD/PD NCT04524351 study. The evaluations are based on a sample size of n = 4 for each time point.
In humans, plasma and lumbar CSF samples were collected via an indwelling catheter over 12 h (at 0, 1, 1.5, 2, 3, 4, 6, 8, and 12 h) initiated at the same time of day, 1 day prior to the start of dosing, to obtain time-dependent baseline control data, and then at the exact same times immediately after the last dose was administered. Samples were frozen and then stored at −80 °C.
as §3

The nature of data set [4]: Plasma pharmacokinetics after oral Posiphen in Beagle dogs (LC-MS/MS). Particulars: dog plasma. On the set-up: species or system dog. How it is done:
In rats and dogs, blood samples were centrifuged, and the resultant plasma was separated, and 200 µL (rat) or 400 µL (dog) of plasma was transferred to uniquely labeled pre-chilled polypropylene tubes containing 5 µL (rat) or 10 µL (dog) Dichlorvos spiking solution (nominal concentration of 0.82 mg/mL in MeOH/Water, 20/80, v/v).
as §4

The mark [5] stands for this setting: both, CD-1, mouse, in vivo, 65 mg/kg.
[6] abbreviates: CD-1, mouse, in vivo, po, 65 mg/kg, Cmax, Table 2, mouse CSF, oral Posiphen.

Regarding `CN1c2ccc(OC(=O)Nc3ccccc3)cc2[C@@]2(C)CCNC12` (stereo partly shown) [N1, N1-norposiphen], in data set [1] (setting [5]), the concentration at 0.25 h was found to be 350 ng/mL, the concentration at 0.5 h was found to be 484 ng/mL, the concentration at 1 h was 446 ng/mL and the concentration at 1.25 h was determined as 554 ng/mL. In data set [1] (setting [5]), this molecule returned a concentration at 1.5 h of 525 ng/mL, a concentration at 2 h of 419 ng/mL, a concentration at 4 h of 83.6 ng/mL and a concentration at 8 h of 3.64 ng/mL. Moreover, in data set [1] (setting [5]), the concentration at 12 h came out at 0 ng/mL, the AUC(0-t) amounted to 1400 ng·h/mL, the highest level (Cmax) was 554 ng/mL and the Tmax turned out to be 1.25 h. In data set [1] (mouse plasma), the “Plasma level relative to N8” value was “a fourth” and the “Plasma level relative to Posiphen” value is “half”. Moreover, the Cmax in the data set “in vivo” (setting [6]) came out at 54.5 ng/mL. Also, the Cmax in “in vivo” (CD-1, mouse, po, 65 mg/kg) was found to be 1850 ng/mL. The Cmax in “in vivo” (Table 2, mouse CSF, oral Posiphen) was determined as 54.4 ng/mL. Besides, in data set [2], the Cmax was 24.9 ng/mL and the AUC(0-t) is 213 ng·h/mL. Besides, the TINAP activity entry in data set [3] was “has both TINAP and AChEI activities”. Further, the “Acetylcholinesterase inhibitory (AChEI) activity” value with acetylcholinesterase is “has both TINAP and AChEI activities”. In “clinical”, this molecule registered a Kp of 0.1, an AUC(0-t) of 26.7 ng·h/mL and a Cmax of 2.56 ng/mL. For the same molecule, the “Primary compound in plasma” value in data set [4] is “primary compound”.
Take `C[C@]12CCNC1Nc1ccc(OC(=O)Nc3ccccc3)cc12` (stereo partly shown) [N1, N8, N1,N8-norposiphen]: in data set [2], the Cmax came out at 3.66 ng/mL and the exposure AUC(0-t) was determined as 36.9 ng·h/mL.
Take `CN1CC[C@]2(C)c3cc(OC(=O)Nc4ccccc4)ccc3NC12` (stereo partly shown) [N8, N8-norposiphen]: in data set [1] (setting [5]), the concentration at 0.25 h is 882 ng/mL, the concentration at 0.5 h worked out at 1310 ng/mL, the concentration at 1 h is 1560 ng/mL and the concentration at 1.25 h came to 1790 ng/mL. For the same molecule, in data set [1] (setting [5]), the concentration at 1.5 h stood at 1930 ng/mL, the concentration at 2 h stood at 1830 ng/mL, the concentration at 4 h stood at 478 ng/mL and the concentration at 12 h was 0 ng/mL. In data set [1] (setting [5]), the AUC(0-t) amounted to 5330 ng·h/mL, the Cmax was found to be 1930 ng/mL and the Tmax stood at 1.5 h. In addition, in data set [1] (mouse plasma), the “Plasma level relative to N1” value was 3.8 times. In the data set “in vivo” (setting [6]), this molecule yielded a Cmax of 309 ng/mL. In the data set “in vivo” (CD-1, mouse, po, 65 mg/kg), this molecule yielded a Cmax of 7290 ng/mL. Moreover, in data set [2], the highest level (Cmax) was 30.4 ng/mL and the AUC(0-t) amounted to 260 ng·h/mL. Besides, the TINAP activity result in data set [3] is “have TINAP”. In the data set on acetylcholinesterase, the “Acetylcholinesterase inhibitory (AChEI) activity” value is reported as “no acetylcholinesterase inhibitory (AChEI) activity”. In the data set “clinical”, this molecule gave a half-life above 12 h, a Kp of 0.17, an AUC(0-t) of 54.9 ng·h/mL and a Cmax of 5.08 ng/mL.
